Assay results from patent US20080004266A1, “Method for treating proliferative disorders associated with protooncogene products” (priority 2006, published 2008).
pIC50: −log10 of the molar value. “Also recorded” adds a separate entry of the source.

Columns and labels:
[1] = system: Karpas-299 cells (NPM-ALK); assay: Cell survival in Karpas-299 cells (Cell Counting Kit-8); assay type: cell-based, human; details: 72 hours
Experimental: Growth of this tumor cell line is dependent upon the expression of the NPM-ALK fusion protein. Karpas-299 cells (20,000 cells/well) were cultured in 96-well plates and maintained at 37° C. for several hours. The cells were incubated at 37° C. for 72 hours with various concentrations of compound 226 of the invention, 17AAG, and 17DMAG. 17AAG and 17DMAG are Hsp90 inhibitors that are currently in clinical trials and are used here as positive controls for Hsp90 inhibition. Cell survival was measured with Cell Counting Kit-8 (Dojindo Laboratories, Cat # CK04).

A375 cells (B-raf V600E) = assay: Cell survival in A375 melanoma cells (Cell Counting Kit-8); assay type: cell-based, human; details: 72 hours
Experimental: Human melanoma cell line, A375 (2×10^6 cells), which contains the V600E mutation in the B-raf protein that confers constitutive […] kinase activity, was obtained from American Type Culture Collection. A375 cells (20,000 cells/well) were cultured in 96-well plates and maintained at 37° C. for several hours. The cells were incubated at 37° C. for 72 hours with various concentrations of compound 226, 17AAG or 17DMAG. 17AAG and 17DMAG are Hsp90 inhibitors that are currently in clinical trials and are used here as positive controls for Hsp90 inhibition. Cell survival was measured with Cell Counting Kit-8 (Dojindo Laboratories, Cat # CK04).

MV 4-11 cells (FLT3-ITD) = assay: Cell survival in MV-4-11 cells (Cell Counting Kit-8); assay type: cell-based, human; details: Homo sapiens, MV4-11, 72 hours
Experimental: Human acute myelogenous leukemia (AML) cell line, MV 4-11 (ATCC #CRL-9591), was obtained from the American Type Culture Collection (ATCC; Manassas, Va., USA). Growth of this tumor cell line is dependent upon the expression of an activated form of the FLT3 tyrosine kinase receptor carrying an internal tandem duplication (ITD) mutation, which is the most common molecular defect associated with AML (K. W. Yee et al., Blood 100:2941-2949, 2002). MV 4-11 cells (20,000 cells/well) were cultured in 96-well plates and maintained at 37° C. for several hours. The cells were incubated at 37° C. for 72 hours with various concentrations of compounds of the invention, 17AAG, or DMAG. 17AAG and DMAG are Hsp90 inhibitors that are currently in clinical trials and are used here as positive controls for Hsp90 inhibition. Cell survival was measured with Cell Counting Kit-8 (Dojindo Laboratories, Cat # CK04).

[2] = system: Kasumi-1 cells (c-Kit N822K); assay: Cell survival in Kasumi-1 cells (Cell Counting Kit-8); assay type: cell-based, human; details: Homo sapiens, 72 hours
Experimental: Kasumi-1 cells (20,000 cells/well) were cultured in 96-well plates and maintained at 37° C. for several hours. […] 17AAG and DMAG are Hsp90 inhibitors that are currently in clinical trials and are used here as positive controls for Hsp90 inhibition. […] Cell survival was measured with Cell Counting Kit-8 (Dojindo Laboratories, Cat # CK04).

c-kit [3] = assay: FACS-based c-kit degradation assay in Kasumi-1 cells; assay type: cell-based, human; details: about 18 h, compounds at 0.5 and 0.05 μM, 17-AAG at 0.5 μM
Experimental: (§1) Two leukemia cell lines, HEL92.1.7 and Kasumi-1, were used for testing c-kit degradation induced by Hsp90 inhibitors of the invention. […] The cells were collected and centrifuged (SORVALL RT 6000D) at 1200 rpm for 5 min. The supernatants were discarded, and the cells were washed one time with 1×PBS. After centrifugation the cells were stained with FITC conjugated c-kit antibody (MBL International, Cat# K0105-4) in […] 1×PBS at 4° C. for 1 h. The samples were read and analysized with FACSCalibur flow cytometer (Becton Dicknson).

c-kit [4] = assay: FACS-based c-kit degradation assay in HEL92.1.7 cells; assay type: cell-based; details: about 18 h, compounds at 0.5 and 0.05 μM, 17-AAG at 0.5 μM
Experimental: as §1

[5] = system: human tumor cell line MDA-MB-435S; assay: MDA-MB-435S nude mouse xenograft model; assay type: in vivo; details: nude mice, 300 mg/kg body weight IP, 5 times per week for 3 weeks, versus vehicle
Experimental: FBS was obtained from Sigma-Aldrich Corp. (St. Louis, Mo., USA), and all other reagents were obtained from Invitrogen Corp. (Carlsbad, Calif., USA). Approximately 4−5×10 (6) cells that had been cryopreserved in liquid nitrogen were rapidly thawed at 37° C. and transferred to a 175 cm^2 tissue culture flask containing 50 ml of growth media and then incubated at 37° C. in a 5% CO2 incubator. The growth media was replaced every 2-3 days until the flask became 90% confluent, typically in 5-7 days. To passage and expand the cell line, a 90% confluent flask was washed with 10 ml of room temperature phosphate buffered saline (PBS) and the cells were disassociated by adding 5 ml 1× Trypsin-EDTA (Invitrogen) and incubating at 37° C. until the cells detached from the surface of the flask. To inactivate the trypsin, 5 ml of growth media was added and then the contents of the flask were centrifuged to pellet the cells. The supernatant was aspirated and the cell pellet was resuspended in 10 ml of growth media and the cell number determined using a hemocytometer. […]
Six to eight week old, female Crl:CD-1-nuBR (nude) mice were obtained from Charles River Laboratories (Wilmington, Mass., USA). […] Tumor volumes (V) were calculated by caliper measurement of the width (W), length (L) and thickness (T) of tumors using the following formula: V=[…]×(L×W×T). […]

[6] = system: c-Kit tyrosine kinase receptor (N822K mutation); assay: Western blot analysis of c-Kit in Kasumi-1 cells; assay type: cell-based, human; details: 100 nM and 400 nM
Excerpt: The results of the FACS analysis were confirmed with Western blot analysis (see FIG. 5). […] In contrast, 17-AAG had no effect of c-Kit protein levels.

K562 cells (Bcr-Abl) = assay: Cell survival in K562 cells (Cell Counting Kit-8); assay type: cell-based, human; details: Homo sapiens, 72 hours
Experimental: Growth of this tumor cell line is dependent upon the expression of the Bcr-Abl fusion protein (C. Gambacarti-Passerini et al., Blood Cells Mol. Dis. 23:380-394, 1997). K562 cells (20,000 cells/well) were cultured in 96-well plates and maintained at 37° C. for several hours. […] 17AAG, DMAG, and Radicical are Hsp90 inhibitors that are currently in clinical trials and are used here as positive controls for Hsp90 inhibition. […] Cell survival was measured with Cell Counting Kit-8 (Dojindo Laboratories, Cat # CK04).

phosphorylated Bcr-Abl = assay: Degradation of Bcr-Abl in KU812 cells (Western blot); assay type: cell-based; details: 18 hours
Experimental: KU812 chronic myeloid leukemia cells (ATCC) (2×10^6 cells), which harbor the Philadelphia chromosome that produces Bcr-Abl tyrosine kinase, were treated (0.1 μM and 1.0 μM) with either Compound 226, 17-AAG or 17-DMAG. After 18 hours, the cells were lysed with 1× lysis buffer, and a western blot was perform using anti-BCR-ABL antibody to detect phosphorylated Bcr-Abl.

## CO[C@H]1/C=C\C=C(/C)C(=O)NC2=CC(=O)C(NCCN(C)C)=C(C[C@@H](C)C[C@H](OC)[C@H](O)[C@@H](C)/C=C(\C)[C@@H]1OC(N)=O)C2=O [Compound 17DMAG, 17-(2-dimethylaminoethyl-1)amino-17-desmethoxygeldanamycin]
[1]
  pIC50: 7.21
A375 cells (B-raf V600E)
  pIC50: 8.40

## CCCn1ccc2c(-n3c(S)nnc3-c3cc(C4CC4)c(O)cc3O)ccc(OC)c21 [Compound 205, 3-(2,4-di-hydroxy-5-cyclopropyl-phenyl)-4-(1-propyl-7-methoxy-indol-4-yl)-5-mercapto-[1,2,4] triazole]
MV 4-11 cells (FLT3-ITD)
  pIC50: 7.31

## CCc1cc(-c2nnc(S)n2-c2ccc(OC)c3c2ccn3C(C)C)c(O)cc1O [Compound 188, 3-(2,4-Dihydroxy-5-ethyl-phenyl)-4-(1-isopropyl-7-methoxy-indol-4-yl)-5-mercapto-[1,2,4]triazole]
[2]
  pIC50: 7.14
c-kit [3]
  c-kit degradation (c-kit positive population, FACS): induced c-kit degradation
MV 4-11 cells (FLT3-ITD)
  pIC50: 7.60
c-kit [4]
  c-kit degradation (c-kit positive population, FACS): induced c-kit degradation

## CCc1cc(-c2nnc(S)n2-c2cccc3ccccc23)c(O)cc1O [Compound 49, 3-(2,4-Di-hydroxy-5-ethyl-phenyl)-4-(naphthalen-1-yl)-5-mercapto-triazole]
[5]
  toxicity (effect on body weights): not toxic; also recorded: not associated with significant toxicity

## C=CCNC1=C2C[C@@H](C)C[C@H](OC)[C@H](O)[C@@H](C)/C=C(\C)[C@H](OC(N)=O)[C@@H](OC)/C=C\C=C(/C)C(=O)NC(=CC1=O)C2=O [Compound 17-AAG, 17-allylamino-17-demethoxygeldanamycin, reference compound]
[6]
  c-Kit protein levels (Western blot): no effect
c-kit [3]
  c-kit degradation (c-kit positive population, FACS): could not induce c-kit degradation
c-kit [4]
  c-kit degradation (c-kit positive population, FACS): could not induce c-kit degradation

## COc1ccc(-n2c(S)nnc2-c2cc(C(C)C)c(O)cc2O)c2ccn(C(C)C)c12 [Compound 208, 3-(2,4-di-hydroxy-5-isopropyl-phenyl)-4-(1-isopropyl-7-methoxy-indol-4-yl)-5-mercapto-[1,2,4] triazole]
[2]
  pIC50: 7.31
MV 4-11 cells (FLT3-ITD)
  pIC50: 7.70

## C[C@@H]1C[C@H]2O[C@@H]2/C=C\C=C\C(=O)Cc2c(Cl)c(O)cc(O)c2C(=O)O1 [Radicical, Radicicol]
K562 cells (Bcr-Abl)
  pIC50: 6.48

## CO[C@H]1/C=C\C=C(/C)C(=O)NC2=CC(=O)C(NCCN(C)C)=C(C[C@@H](C)C[C@H](OC)[C@H](O)[C@@H](C)/C=C(\C)[C@@H]1OC(N)=O)C2=O [Compound 17-DMAG]
Phosphorylated Bcr-Abl; 0.1 μM
  degradation of phosphorylated Bcr-Abl: partial degradation
Phosphorylated Bcr-Abl; 1.0 μM
  degradation of phosphorylated Bcr-Abl: complete degradation

## CC(C)c1cc(-c2nnc(S)n2-c2ccc3c(ccn3C)c2)c(O)cc1O [Compound 221, 3-(2,4-di-hydroxy-5-isopropyl-phenyl)-4-(N-methyl-indol-5-yl)-5-mercapto-[1,2,4] triazole]
[6]
  c-Kit protein levels (Western blot): induced the degradation of c-Kit
c-kit [3]
  c-kit degradation (c-kit positive population, FACS): induced c-kit degradation
c-kit [4]
  c-kit degradation (c-kit positive population, FACS): induced c-kit degradation
